Results on 14 compounds are retold here after US8993566B2, “Quinoline compound composing 1,2,4-triazine-dione and use thereof” (Wuhan Shengyun Biopharma Co., Ltd., priority 2012, dated 2015).

For orientation: IC50 means the concentration at which inhibition is half-maximal.

Converted amounts (≈) assume the structure as drawn.

Test [1] has as its system human colon cancer cell HT-29. As to the kind of experiment: In vitro anti-tumor cell activity (MTT), HT-29. The test is classed as cell-based. The conditions noted are these: HT-29 cells, MTT, 72 h, Bliss method; for IC50: Homo sapiens, read-out: HT-29 IC50. As for the experimental part:
(§1) The digested cell solution was poured into a centrifuge tube, to which a culture media was added to stop the digestion. The centrifuge tube was centrifuged at 800 r/min for 10 min, the supernatant was removed gently and then 5 mL of the culture media was added. The cells were pipetted and mixed homogeneously. 10 μL cell suspension was taken into a cell counting plate for counting, wherein the cell concentration was adjusted to 10^4 cells/well. To each well of a 96-well plate, except for A1 well as blank control, was added 100 μL of the cell suspension. The 96-well plate was placed in an incubator and cultivated for 24 h. […] The 96-well plate was placed in an incubator and cultivated for 72 h. (3) The culture media containing the compounds in the 96-well plate was removed, and the cells were washed with phosphate buffered solution (PBS) twice. To each well was added 100 μL MTT (tetrazole) (0.5 mg/mL), after placing the plate in an incubator to incubate for 4 h, the MTT solution was removed and 100 μL dimethyl sulfoxide was added. The reaction product of survival cells with MTT, i.e. formazan, was dissolved completely by oscillation on a magnetic oscillator, and then placed into a microplate reader to measure the results, and the IC50 values of compounds could be deduced by Bliss method.

Test [2] deals with human gastric cancer cell MKN-45. As to the kind of experiment: In vitro anti-tumor cell activity (MTT), MKN-45. The conditions noted are these: MKN-45 cells, MTT, 72 h, Bliss method; for IC50: Homo sapiens, read-out: MKN-45 IC50. The test is classed as cell-based. As for the experimental part:
as §1

Test [3] relates to human nonsmall-cell lung cancer cell H460. As to the kind of experiment: In vitro anti-tumor cell activity (MTT), H460. Type of test: cell-based. To be noted: H460 cells, MTT, 72 h, Bliss method; for IC50: Homo sapiens, NCI-H460, read-out: H460 IC50. The method, then: as §1
Test [4] has as its target T1, c-Met kinase (His-tagged recombinant human Met (amino acids 974-end)) (Homo sapiens, UniProt P08581).
T1 construct: His-tagged recombinant human Met (amino acids 974-end); His
As to the kind of experiment: c-Met Enzyme Activity Inhibition Assay (ELISA). The test is classed as biochemical. To be noted: 50 pM c-Met, 5 μM ATP, room temperature 20 min; for IC50: read-out: IC50 for inhibiting c-Met kinase (converted). The method, then:
c-Met Enzyme Activity Inhibition Assay
The assay for the determination of c-Met kinase activity is based on an enzyme linked immunosorbant assay (ELISA). A compound of Formula I, 50 pM c-Met (His-tagged recombinant human Met (amino acids 974-end), expressed by baculovirus), and 5 μM ATP in an assay buffer (25 mM MOPS, pH 7.4, 5 mM MgCl2, […], 100 μM sodium orthovanadate, 0.01% Triton X-100, 1 mM DTT, final DMSO concentration 1% (v/v)) were incubated on a plate coated with 0.25 mg/mL POT at room temperature for 20 min. The reaction mixture was removed by washing and the phosphorylated polymer substrate was detected with 0.2 μg/mL phosphotyrosine specific monoclonal antibody (PY20) conjugated to horseradish peroxidase (HRP). After the addition of 1M phosphoric acid to stop the development, the chromogenic substrate (TMB) color was quantitated by spectrophotometry at 450 nm.

Test [5] relates to human hepatoma carcinoma cell line SMMC-7721. As to the kind of experiment: In vitro anti-tumor cell activity (MTT), SMMC-7721. The test is classed as cell-based. The conditions noted are these: SMMC-7721 cells, MTT, 72 h, Bliss method; for IC50: Homo sapiens, read-out: SMMC-7721 IC50. As for the experimental part:
as §1

T1 sequence (P08581 956-1390): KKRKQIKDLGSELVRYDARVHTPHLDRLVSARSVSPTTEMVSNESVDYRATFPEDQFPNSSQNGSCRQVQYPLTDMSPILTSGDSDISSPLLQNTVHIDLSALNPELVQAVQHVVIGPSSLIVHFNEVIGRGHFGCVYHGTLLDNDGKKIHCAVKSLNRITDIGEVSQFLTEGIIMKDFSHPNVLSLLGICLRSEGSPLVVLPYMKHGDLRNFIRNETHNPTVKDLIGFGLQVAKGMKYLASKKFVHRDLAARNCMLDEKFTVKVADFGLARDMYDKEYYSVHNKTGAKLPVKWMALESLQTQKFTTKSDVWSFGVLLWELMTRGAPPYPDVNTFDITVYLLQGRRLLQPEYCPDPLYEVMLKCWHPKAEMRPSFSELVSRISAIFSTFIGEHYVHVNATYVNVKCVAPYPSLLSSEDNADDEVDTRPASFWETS

As for `COc1cc2c(Oc3ccc(NC(=O)c4nn(-c5ccc(Cl)cc5)c(=O)n(C)c4=O)cc3F)ccnc2cc1OCCCN1CCOCC1` [Example 27, N-[3-fluoro-4-[6-methoxy-7-[3-(4-morpholinyl)propyloxy]quinolin-4-oxy]phenyl]-2-(4-chlorophenyl)-4-methyl-3,5-dioxo-2,3,4,5-tetrahydro-1,2,4-triazine-6-carboxamide], the IC50 was 0.18 µg/mL (≈ 0.26 µM) in test [1]; 5.3 ng/mL (≈ 0.00767 µM) in test [2]; 0.23 µg/mL (≈ 0.333 µM) in test [3]; 59.3 nM in test [4]; 0.58 µg/mL (≈ 0.839 µM) in test [5].
Regarding “N-[3-fluoro-4-[7-methoxy-6-[3-(4-morpholinyl)propyloxy]quinolin-4-oxy]phenyl]-2-(2-fluorophenyl)-4-butyl-3,5-dioxo-2,3,4,5-tetrahydro-1,2,4-triazine-6-carboxamide [Example 29]”, the “HT-29 IC50” value in test [1] was 0.12 µg/mL. In addition, the “MKN-45 IC50” value in test [2] turned out to be 0.0009 µg/mL. For the same compound, the “H460 IC50” value in test [3] worked out at 0.0056 µg/mL. In addition, the “IC50 for inhibiting c-Met kinase” value in test [4] amounted to 0.61 µg/mL. The “SMMC-7721 IC50” value in test [5] is 0.014 µg/mL.
Turning to `COc1cc2c(Oc3ccc(NC(=O)c4nn(-c5ccc(F)cc5)c(=O)n(C)c4=O)cc3F)ccnc2cc1OCCCN1CCN(C)CC1` [Example 10, N-[3-fluoro-4-[6-methoxy-7-[3-(4-methyl-1-piperazinyl)propyloxy]quinolin-4-oxy]phenyl]-2-(4-fluorophenyl)-4-methyl-3,5-dioxo-2,3,4,5-tetrahydro-1,2,4-triazine-6-carboxamide], the IC50 was 0.093 µg/mL (≈ 0.135 µM) in test [1]; 6.5 ng/mL (≈ 0.00945 µM) in test [2]; 0.0081 µg/mL (≈ 0.0118 µM) in test [3]; 106 nM in test [4]; 0.11 µg/mL (≈ 0.16 µM) in test [5].
For the compound `COc1cc2c(Oc3ccc(NC(=O)c4nn(-c5ccc(F)cc5)c(=O)n(C)c4=O)cc3F)ccnc2cc1OCCCN1CCOCC1` [Example 8, N-[3-fluoro-4-[6-methoxy-7-[3-(4-morpholinyl)propyloxy]quinolin-4-oxy]phenyl]-2-(4-fluorophenyl)-4-methyl-3,5-dioxo-2,3,4,5-tetrahydro-1,2,4-triazine-6-carboxamide], the IC50 in test [1] was 0.28 µg/mL (≈ 0.415 µM); in test [2], 77 ng/mL (≈ 0.114 µM); in test [3] it was 0.33 µg/mL (≈ 0.489 µM); in test [4], 623 nM; in test [5], 0.42 µg/mL (≈ 0.623 µM).
Regarding “N-[3-fluoro-4-[6-methoxy-7-[3-(1-piperidinyl)propyloxy]quinolin-4-oxy]phenyl]-2-phenyl-4-methyl-3,5-dioxo-2,3,4,5-tetrahydro-1,2,4-triazine-6-carboxamide [Example 2]”, the “HT-29 IC50” value in test [1] amounted to 0.18 µg/mL. The “MKN-45 IC50” value in test [2] was 0.032 µg/mL. Moreover, the “H460 IC50” value in test [3] is 0.072 µg/mL. Moreover, the “IC50 for inhibiting c-Met kinase” value in test [4] is 0.12 µg/mL. In addition, the “SMMC-7721 IC50” value in test [5] turned out to be 0.20 µg/mL.
The matching figures for “N-[3-fluoro-4-[6-methoxy-7-[3-(4-methyl-1-piperazinyl)propyloxy]quinolin]-4-oxy]phenyl]-2-(2-fluorophenyl)-4-allyl-3,5-dicarbonyl-2,3,4,5-tetrahydro-1,2,4-triazine-6-carboxamide [Example 41]”: 1.1 µg/mL, 0.06 µg/mL, 0.8 µg/mL, 2.7 µg/mL and 1.4 µg/mL.
“N-[3-fluoro-4-[7-methoxy-6-[3-(4-methyl-1-piperidinyl)propyloxy]quinolin-4-oxy]phenyl]-2-(2-trifluoromethylphenyl)-4-butyl-3,5-dicarbonyl-2,3,4,5-tetrahydro-1,2,4-triazine-6-carboxamide [Example 33]”: the “HT-29 IC50” value in test [1] was found to be 0.18 µg/mL. In addition, the “MKN-45 IC50” value in test [2] worked out at 0.09 µg/mL. The “H460 IC50” value in test [3] worked out at 0.15 µg/mL. For the same compound, the “IC50 for inhibiting c-Met kinase” value in test [4] worked out at 0.27 µg/mL. Further, in test [5], the “SMMC-7721 IC50” value stood at 0.43 µg/mL.
For “N-[3-fluoro-4-[6-methoxy-7-[3-(4-methyl-1-piperidinyl)propyloxy]quinolin-4-oxy]phenyl]-2-(3-trifluoromethylphenyl)-4-methyl-3,5-dicarbonyl-2,3,4,5-tetrahydro-1,2,4-triazine-6-carboxamide [Example 24]”, in test [1], the “HT-29 IC50” value stood at 0.5 µg/mL. In addition, in test [2], the “MKN-45 IC50” value was 0.093 µg/mL. In addition, the “H460 IC50” value in test [3] is 0.28 µg/mL. Also, the “IC50 for inhibiting c-Met kinase” value in test [4] was 0.18 µg/mL. In addition, the “SMMC-7721 IC50” value in test [5] came out at 0.61 µg/mL.
The matching figures for “N-[3-fluoro-4-[6-methoxy-7-[3-(4-methyl-1-piperazinyl)propyloxy]quinolin]-4-oxy]phenyl]-2-(3,4-difluorophenyl)-4-benzyl]-3,5-dicarbonyl-2,3,4,5-tetrahydro-1,2,4-triazine-6-carboxamide [Example 45]”: 0.28 µg/mL, 0.05 µg/mL, 0.34 µg/mL, 2.72 µg/mL and 1.1 µg/mL.
Take `COc1cc2c(Oc3ccc(NC(=O)c4nn(-c5ccc(F)c(F)c5)c(=O)n(C)c4=O)cc3F)ccnc2cc1OCCCN1CCN(C)CC1` [Example 20, N-[3-fluoro-4-[6-methoxy-7-[3-(4-methyl-1-piperazinyl)propyloxy]quinolin-4-oxy]phenyl]-2-(3,4-difluorophenyl)-4-methyl-3,5-dioxo-2,3,4,5-tetrahydro-1,2,4-triazine-6-carboxamide]: the IC50 in test [1] was 0.14 µg/mL (≈ 0.198 µM); in test [2], 9 ng/mL (≈ 0.0128 µM); in test [3] it was 0.28 µg/mL (≈ 0.397 µM); in test [4], 241 nM; in test [5] it was 0.11 µg/mL (≈ 0.156 µM).
The matching figures for `COc1cc2c(Oc3ccc(NC(=O)c4nn(-c5ccc(F)cc5)c(=O)n(C)c4=O)cc3F)ccnc2cc1OCCCN1CCC(C)CC1` [Example 9, N-[3-fluoro-4-[6-methoxy-7-[3-(4-methyl-1-piperidinyl)propyloxy]quinolin-4-oxy]phenyl]-2-(4-fluorophenyl)-4-methyl-3,5-dioxo-2,3,4,5-tetrahydro-1,2,4-triazine-6-carboxamide]: 0.21 µg/mL (≈ 0.306 µM), 65 ng/mL (≈ 0.0947 µM), 0.17 µg/mL (≈ 0.248 µM), 233 nM and 0.09 µg/mL (≈ 0.131 µM).
With “N-[3-fluoro-4-[6-methoxy-7-[3-(1-pyrrolidyl)propyloxy]quinolin-4-oxy]phenyl]-2-(4-methoxyphenyl)-4-methyl-3,5-dicarbonyl-2,3,4,5-tetrahydro-1,2,4-triazine-6-carboxamide [Example 11]”, the “HT-29 IC50” value in test [1] turned out to be 1.4 µg/mL. Also, the “MKN-45 IC50” value in test [2] was determined as 3.3 µg/mL. For the same compound, in test [3], the “H460 IC50” value worked out at 2.1 µg/mL. Also, the “IC50 for inhibiting c-Met kinase” value in test [4] was found to be 0.47 µg/mL. For the same compound, the “SMMC-7721 IC50” value in test [5] was 2.5 µg/mL.
The matching figures for `COc1cc2c(Oc3ccc(NC(=O)c4nn(-c5ccc(Cl)cc5)c(=O)n(C)c4=O)cc3F)ccnc2cc1OCCCN1CCCCC1` [Example 26, N-[3-fluoro-4-[6-methoxy-7-[3-(1-piperidinyl)propyloxy]quinolin-4-oxy]phenyl]-2-(4-chlorophenyl)-4-methyl-3,5-dioxa-2,3,4,5-tetrahydro-1,2,4-triazine-6-carboxamide;]: 0.08 µg/mL, 0.011 µg/mL, 0.15 µg/mL, 0.71 µg/mL and 0.33 µg/mL.
Turning to “N-[3-fluoro-4-[6-methoxy-7-[3-(1-pyrrolidyl)propyloxy]quinolin-4-oxy]phenyl]-2-(3-trifluoromethylphenyl)-4-methyl-3,5-dicarbonyl-2,3,4,5-tetrahydro-1,2,4-triazine-6-carboxamide [Example 21]”, in test [1], the “HT-29 IC50” value came out at 0.13 µg/mL. The “MKN-45 IC50” value in test [2] stood at 0.0002 µg/mL. Also, in test [3], the “H460 IC50” value is 0.24 µg/mL. The “IC50 for inhibiting c-Met kinase” value in test [4] was 0.13 µg/mL. Also, the “SMMC-7721 IC50” value in test [5] amounted to 0.32 µg/mL.
